Measured values as given in publication PMC9586926, “An efflux-susceptible antibiotic-adjuvant with systemic efficacy against mouse infections” (Scientific Reports, 2022).
Values after ≈ are worked out from the molar mass of the structure shown. Where a SMILES comes first, the peptide text is derived from it. [ ]: non-standard residue; d: D form. The star is where a group is joined. 12Ado = NCCCCCCCCCCCC(=O)O; Decanoyl = CCCCCCCCCC(=O)*; Dap = NC[C@H](N)C(=O)O

Assays:
A. baumannii = assay: MIC, broth microdilution; type: cell-based, Acinetobacter baumannii; conditions: broth microdilution in LB, 18–24 h, 37 °C; n = 1 strain
Source text: (§1) Bacteria used in this study consisted of standard American Type Culture Collection (ATCC; Biological Industries, Beit Haemek, Israel) strains, clinically isolated (CI; Sourasky Medical Center, Tel Aviv, Israel) strains, as well as isogenic mutant strains. Gram-negative bacteria included Acinetobacter baumannii ATCC 19606; Escherichia coli ATCC 25922, 35218, CFT073, CI 14384, 16327, and the isogenic pair Ag100 (wild-type) and its efflux deficient mutant Ag100a (ΔacrAB); Klebsiella pneumoniae CI 1287, 224; Pseudomonas aeruginosa ATCC 27853, CI 1278, 8634; Salmonella enterica serovar Typhimurium ATCC 14028 (wild-type) and its isogenic efflux deficient mutant ΔacrAB. Bacteria were grown in Luria–Bertani broth (LB; 5 g/l NaCl, 5 g/l yeast extract, 10 g/l tryptone; pH = 7.0) at 37 °C with shaking. Over-night cultures were diluted 10-folds into fresh growth-medium and incubated at 37 °C with shaking until reaching mid-logarithmic phase. Then, bacterial concentrations were adjusted using O.D.600 nm measurements, and bacteria were subjected to the experimental procedures listed herein.
(§2) MIC was determined according to the broth microdilution method: antimicrobials were subjected to serial twofold dilutions in LB medium, and incubated with 5 × 10^5 CFU/ml of bacteria (final volume of 200 µl) for 18–24 h at 37 °C. Then, O.D.620 nm was measured (BioTek Instruments Synergy HT; Winooski, VT, USA), and the MIC was defined as the lowest antimicrobial concentration for which no increase in O.D.620 nm was evident, compared to the untreated control.

murine RBC = assay: Hemolysis; type: cell-based; conditions: 1% hematocrit murine RBC, 3 h, 37 °C
Procedure: Permeabilization of red blood cells (RBC) was evaluated using absorbance measurements of extracellular hemoglobin. Serial twofold dilutions of lipopeptides were incubated with 1% hematocrit of murine RBC for 3 h at 37 °C with shaking. Samples were then centrifuged at 20,000 RCF for 5 min, and absorbance of the supernatants was measured at 450 nm (BioTek Instruments Synergy HT; Winooski, VT, USA). Percent hemolysis was then calculated by (AS − AN)/(AP − AN) × 100; where AS, AN, and AP represent the absorbance of the sample, negative control (PBS) and positive control (Milli-Q water), respectively. LC50 values were extracted from trend-lines generated for linear-regions of plots correlating lipopeptide concentrations and percent hemolysis.

E. coli 25922 [1] = conditions: same assessment tools; cited from earlier work
Source text: To our knowledge, the finding of an adjuvant whose activity is enhanced—rather than repressed—after efflux, is hitherto unreported. One might ask, at this point: If the K-, O and B-based analogs are efflux substrates (as implied by MIC data, Table 2), how come only C10BBc12B is positively affected by efflux?

[2] = tested on: S. Typhimurium 14028 (wild-type); conditions: cited from earlier work
Source text: Table 2 Effect of RND pumps on growth-inhibitory activity. | column: MIC^a (µM) in LB / S. Typhimurium / Wild-Type

[3] = tested on: E. coli Ag100 (wild-type); conditions: cited from earlier work
Source text: Table 2 Effect of RND pumps on growth-inhibitory activity. | column: MIC^a (µM) in LB / E. coli / Wild-Type

E. coli Ag100a (ΔacrAB) = conditions: cited from earlier work
Source text: Table 2 Effect of RND pumps on growth-inhibitory activity. | column: MIC^a (µM) in LB / E. coli / Mutant

[4] = tested on: S. Typhimurium 14028ΔAcrAB; conditions: cited from earlier work
Source text: Table 2 Effect of RND pumps on growth-inhibitory activity. | column: MIC^a (µM) in LB / S. Typhimurium / Mutant

P. aeruginosa = assay: MIC, broth microdilution; type: cell-based, Pseudomonas aeruginosa; conditions: broth microdilution in LB, 18–24 h, 37 °C; n = 3 strains
Source text: as §1, §2

HEK-293FT = assay: Cytotoxicity, Alamar blue; type: cell-based, human; conditions: 24 h incubation, read-out: IC50 HEK-293FT (50% inhibition of cells respiration)
Procedure: (§3) Cell lines used in this study included murine RAW 264.7 macrophages and human embryonic kidney HEK-293FT cells (ATCC, Biological Industries, Beit Haemek, Israel). Cells were grown in Dulbecco’s modified eagle medium (DMEM) containing […] glucose, L-glutamine, sodium bicarbonate and sodium pyruvate, supplemented with 10% fetal bovine serum and pen-strep, at 37 °C and 5% CO2.
(§4) Lipopeptides cytotoxicity was determined using fluorescent measurements of reduced resazurin. 2 × 10^4 cells were first cultured in 96-well plates over-night (final volume of 100 µl) at 37 °C and 5% CO2. Then, the medium was removed and cells were incubated for an additional 24 h with serial twofold dilutions of the lipopeptides in growth medium. Then, 10 µl of Alamar blue were added and plates were incubated for 3 h, after which fluorescence (excitation: 530 nm; emission: 590 nm) of the reduced resazurin was recorded (BioTek Instruments Synergy HT; Winooski, VT, USA).

RAW 264.7 = assay: Cytotoxicity, Alamar blue; type: cell-based, murine; conditions: 24 h incubation, read-out: IC50 RAW 264.7 (50% inhibition of cells respiration)
Procedure: as §3, §4

K. pneumoniae = assay: MIC, broth microdilution; type: cell-based, Klebsiella pneumoniae; conditions: broth microdilution in LB, 18–24 h, 37 °C; n = 2 strains
Source text: as §1, §2

E. coli = assay: MIC, broth microdilution; type: cell-based, Escherichia coli; conditions: broth microdilution in LB, 18–24 h, 37 °C; n = 4 strains; published data in bold (not discernible)
Source text: as §1, §2

[5] = tested on: Gram-negative ESKAPE pathogens; assay: MIC against 10 bacterial strains of the four Gram-negative ESKAPE species; type: cell-based
Source text: as §1
MIC was determined according to the broth microdilution method: antimicrobials were subjected to serial twofold dilutions in LB medium, and incubated with 5 × 10^5 CFU/ml of bacteria (final volume of 200 µl) for 18–24 h at 37 °C. […]

[6] = design: method as in PMID 20480482; conditions: cited from earlier work
A. baumannii 19606 = assay: Selective pressure, MIC evolution over 15 consecutive subcultures; conditions: in absence of C10BBc12B
Procedure: The likelihood of antimicrobial-resistance development was assessed by recording MIC changes upon consecutive rounds of antimicrobials application, as in the MIC assay. Following each round, bacteria from wells corresponding to ½ of the resulting MIC were regrown in fresh media to mid-logarithmic phase and subjected to the same procedure for 15 consecutive days[66].

E. coli 25922 [7] = assay: Growth / time-kill kinetics; type: cell-based, Escherichia coli; conditions: 10 µM C10BBc12B, 1 µg/ml erythromycin or 20 ng/ml rifampin alone
Procedure: Antimicrobials mode of action was determined according to the rate of bacterial killing. Varying concentrations of lipopeptides, antibiotics and combinations thereof were mixed in LB medium with 5 × 10^5 CFU/ml of bacteria (final volume of 1 ml) and incubated at 37 °C with shaking. At the designated time-points aliquots were serially tenfold diluted in saline, plated on LB agar, and incubated over-night at 37 °C for enumeration.

K. pneumoniae 1287 = assay: Combination with antibiotics, modified checkerboard titration; type: cell-based, Klebsiella pneumoniae
Procedure: as §2
(§5) Lipopeptides and antibiotics combinations were assessed using a modified version of the checkerboard titration method: Antibiotics MIC was determined in LB medium containing sub-inhibitory lipopeptide concentrations. The sensitization factor (SF)[46] was then calculated by SF = MICA/MICC, where “MICA” is the antibiotic MIC in absence of an adjuvant and “MICC “ is the antibiotic MIC in presence of an adjuvant, for a specified adjuvant concentration. Combinations were classified as synergistic when antibiotics MIC were decreased by > 4 folds. Alternatively, the fractional inhibitory concentration index (FICI) was calculated by FICI = MICC1/MICA1 + MICC2/MICA2, where “MICC1” and “MICC2” respectively specify the antibiotic and the adjuvant MIC values upon their combination, whereas “MICA1” and “MICA2” respectively specify the antibiotic and the adjuvant MIC values when tested individually. Combinations were classified as synergistic for FICI < 0.5.

E. coli 25922 [8] = type: cell-based, Escherichia coli; conditions: E. coli
Procedure: as §2, §5

UPEC CFT073 = assay: Urinary-tract infection model; type: in vivo, mice; conditions: 24 h post-infection; 2 mg/kg rifampin, 7.5 mg/kg q.i.d. C10BBc12B or both; n = 5
Procedure: (§6) The study is reported in accordance with ARRIVE guidelines.
(§7) Lipopeptides potential application in monotherapy and/or combination-therapies was explored with two infection models. In the peritonitis-sepsis model, mice (n = 10 per group) were first rendered neutropenic by two intraperitoneal (I.P.) injections of 0.3 ml containing 150 mg/kg and 100 mg/kg cyclophosphamide, administered 4 days and 1 day before the experiment, respectively. […] Mice survival was recorded for up to 7 days. In a variant assay, bacteria in PBS (1.4 × 10^6) were pre-treated with 10 µM lipopeptides for 15 min, similarly administered, and mice survival was recorded for up to 3 days. In the urinary-tract infection (UTI) model, mice (N = 5 mice per group) were anesthetized by a single I.P. injection (0.2 ml) containing a mixture of ketamine (100 mg/kg) and xylazine (5 mg/kg). Following application of an analgesic 2% lidocaine gel on their penises, mice were infected intra-urethraly using a 24-gauge catheter with 1.2 × 10^8 CFU/mouse (0.05 ml) and treated with the vehicle control (S.C., 1 h post-infection), 2 mg/kg rifampin (oral gavage, immediately before anesthesia), 7.5 mg/kg q.i.d. lipopeptides (S.C., starting 1 h post-infection), or both. Mice were sacrificed 24 h post-infection, their bladder and kidneys aseptically excised, suspended in 5 ml of sterile PBS, homogenized for 3 min using a bench-top homogenizer, serially tenfold diluted in saline, plated on LB agar, and incubated over-night at 37 °C for enumeration.

E. coli 25922 [9] = assay: Peritonitis-sepsis infection model in neutropenic mice; type: in vivo; conditions: n = 10
Procedure: as §6, §7

SMILES	MIC A. baumannii (n=1) (A. baumannii) [µM]	LC50 Erythrocytes (50% hemolysis) (murine RBC) [µM]	MIC (µM) in LB, S. Typhimurium Wild-Type [2] [µM]	MIC (µM) in LB, E. coli Wild-Type [3] [µM]	MIC (µM) in LB, E. coli Mutant (E. coli Ag100a (ΔacrAB)) [µM]	MIC (µM) in LB, S. Typhimurium Mutant [4] [µM]	IC50 (HEK-293FT) [µM]	IC50 (RAW 264.7) [µM]	MIC K. pneumoniae (n=2) (K. pneumoniae) [µM]	MIC E. coli (n=4) (E. coli) [µM]	antibiotic MIC after 15 consecutive subcultures (A. baumannii 19606)	antibiotic MIC before subculturing (A. baumannii 19606) [µg/mL]	effect on bacterial proliferation, individual agent (E. coli 25922 [7])	further results
CCCCCCCCCC(=O)N[C@@H](CCCCN)C(=O)N[C@@H](CCCCN)C(=O)NCCCCCCCCCCCC(=O)N[C@@H](CCCCN)C(N)=O [C10KKc12K] (Decanoyl-KK[12Ado]K-NH2)	> 50	> 50	> 50	> 50	6.2 (≈ 4.67 µg/mL)	25 (≈ 18.8 µg/mL)	> 50	> 50	≥ 50	≥ 50	–	–	–	CM depolarization (E. coli 25922 [1]): interact with the CM to the point of inducing its depolarization; MIC P. aeruginosa (n=3) (P. aeruginosa): > 50 µM
CCCCCCCCCC(=O)N[C@@H](CN)C(=O)N[C@@H](CN)C(=O)NCCCCCCCCCCCC(=O)N[C@@H](CN)C(N)=O [C10PPc12P] (Decanoyl-[Dap][Dap][12Ado][Dap]-NH2)	> 50	26	–	–	–	–	> 50	> 50	≥ 50	12.5 to 25	–	–	–	MIC [5]: occasionally presented somewhat lower MIC values; side-chain β-NH2 group pKa [6]: 6.3
CC[C@H]1OC(=O)[C@H](C)[C@@H](O[C@H]2C[C@@](C)(OC)[C@@H](O)[C@H](C)O2)[C@H](C)[C@@H](O[C@@H]2O[C@H](C)C[C@H](N(C)C)[C@H]2O)[C@](C)(O)C[C@@H](C)C(=O)[C@H](C)[C@@H](O)[C@]1(C)O [Erythromycin]	–	–	> 50	> 50	10.9 (≈ 8 µg/mL)	6.8 (≈ 4.99 µg/mL)	–	–	–	–	8,192 µg/ml	64	unable to significantly alter bacterial proliferation	antibiotic inhibitory concentration in absence of adjuvant (K. pneumoniae 1287): 512 µg/mL; antibiotic inhibitory concentration in presence of C10BBc12B (K. pneumoniae 1287): 0.250 µg/mL
CO[C@H]1/C=C/O[C@@]2(C)Oc3c(C)c(O)c4c(O)c(c(/C=N/N5CCN(C)CC5)c(O)c4c3C2=O)NC(=O)/C(C)=C\C=C\[C@H](C)[C@H](O)[C@@H](C)[C@@H](O)[C@@H](C)[C@H](OC(C)=O)[C@@H]1C [Rifampin, reference compound]	–	–	19.4 (≈ 16 µg/mL)	19.4 (≈ 16 µg/mL)	19.4 (≈ 16 µg/mL)	19.4 (≈ 16 µg/mL)	–	–	–	–	8 µg/mL	2	unable to significantly alter bacterial proliferation	antibiotic MIC in presence of C10BBc12B (E. coli 25922 [8]): below 1 ng/ml; bladder bacterial load (UPEC CFT073): no reduction in bacterial load; survival rate, monotherapy (E. coli 25922 [9]; 1.7 × 10^6 CFU/mouse, […] C10BBc12B S.C. 1 h post-infection or 20 mg/kg rifampin oral gavage): 50%; efficacy, monotherapy, higher inoculum (E. coli 25922 [9]; 1.9 × 10^6 CFU/mouse, […] C10BBc12B S.C. or 20 mg/kg rifampin oral): virtually no efficacy; antibiotic MIC in presence of C10BBc12B (K. pneumoniae 1287): below 1 ng/ml
